Drawing on US6676925B1, “Sigma-2 receptors as biomarkers of tumor cell proliferation” (priority 1996, dated 2004), this text covers Ki for nine compounds.

Assay [1] has as its target T1, Sigma-2 sites (Rattus norvegicus, UniProt Q5U3Y7).
T1 sequence (Q5U3Y7 1-176): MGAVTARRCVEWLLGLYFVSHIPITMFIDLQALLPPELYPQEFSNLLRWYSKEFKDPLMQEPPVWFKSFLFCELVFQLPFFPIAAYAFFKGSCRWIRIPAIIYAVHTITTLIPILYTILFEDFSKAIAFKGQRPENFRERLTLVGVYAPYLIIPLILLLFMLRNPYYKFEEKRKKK
The assay can be described thus: σ2 binding assay, [^3H]DTG in rat liver membranes in the presence of 100 nM (+)-pentazocine.
Description: Assays were terminated by the addition of ice-cold 10 mM Tris-HCl, pH 8.0 followed by rapid filtration through Whatman GF/B glass fiber filters (presoaked in 0.5% polyethylenimine) using a Brandel cell harvester (Gaithersburg, Md.). Filters were then washed twice with 5 mL of ice cold buffer Nonspecific binding was determined in the presence of 5 μM DTG. Liquid scintillation counting was carried out in EcoLite(+) (ICN Radiochemicals; Costa Mesa, Calif.) using a Beckman LS 6000IC spectrometer with a counting efficiency of 50%. […] Typical counts for guinea pig brain were 16 dpm/μg protein for total binding, 2 dpm/μg protein for nonspecific binding, and 14 dpm/μg protein for specific binding.
(§1) The IC50 values at sigma sites were determined in triplicate from non-linear regression of binding data as analyzed by JMP (SAS Institute; Cary, N.C.), using 5-10 concentrations of each compound. Ki values were calculated using the Cheng-Prusoff equation and represent mean values ±SEM. All assays were done in triplicate unless otherwise noted.

In assay [2] the target is Sigma-1 binding sites (Cavia porcellus, UniProt Q60492). In words: σ1 binding assay, [^3H](+)-pentazocine in guinea pig brain membranes.
Sigma-1 binding sites, sequence (Q60492 whole entry): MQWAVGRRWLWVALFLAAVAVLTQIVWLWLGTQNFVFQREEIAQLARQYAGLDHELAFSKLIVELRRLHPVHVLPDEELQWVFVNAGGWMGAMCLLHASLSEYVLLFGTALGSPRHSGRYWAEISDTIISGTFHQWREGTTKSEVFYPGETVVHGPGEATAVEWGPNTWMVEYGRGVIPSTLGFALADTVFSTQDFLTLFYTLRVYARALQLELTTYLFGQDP
Description: Test compounds were dissolved in ethanol (7 concentrations ranging from 1-1000 nM) then diluted in buffer for a total incubation volume of 0.5 mL. Assays were terminated by the addition of ice-cold 10 mM Tris HCl, pH 8.0 followed by rapid filtration through Whatman GF/B glass fiber filters (presoaked in 0.5% polyethylenimine) using a Brandel cell harvester (Gaithersburg, Md.). Filters were washed twice with 5 ML of ice cold buffer. Nonspecific binding was determined in the presence of 10 μM (+)-pentazocine. Liquid scintillation counting was carried out in EcoLite (+) (ICN Radiochemicals; Costa Mesa, Calif.) using a Beckman LS 6000IC spectrometer with a counting efficiency of 50%. Typical counts were 70 dpm/μg protein for total binding, 6 dpm/μg protein for nonspecific binding, and 64 dpm/μg protein for specific binding.
as §1

The structures appear in SMILES notation.

Usually Ki stands for a dissociation constant, usually derived from enzyme kinetics or from competition with a known ligand. Consider `COc1ccc(OC)c(NC(=O)O[C@H]2C[C@H]3CC[C@@H](C2)N3Cc2ccccc2)c1` [Compound 9, (3-endo)-8-Benzyl-8azabicyclo[3.2.1]octyl-3-N-(2′,5′-dimethoxyphenyl)-carbamate], for which the Ki in assay [1] was found to be 22.1 nM; in assay [2] it was 72.4 nM.
In the case of `COc1ccc(Cl)cc1NC(=O)O[C@H]1C[C@H]2CCC[C@@H](C1)N2Cc1ccccc1` [Compound 7, (3-endo)-9-Benzyl-9-azabicyclo[3.3.1]nonanyl-3-N-(5′-chloro-2′-methoxyphenyl)carbamate], the Ki is 63.5 nM in assay [1] and above 1000 nM in assay [2].
For `O=C(Nc1ccc(Cl)c(Cl)c1)O[C@H]1C[C@H]2CC[C@@H](C1)N2Cc1ccccc1` [Compound 10, (3-endo)-8-Benzyl-8-azabicyclo[3.2.1]octyl-3-N(3′, 4′-dichlorophenyl)-carbamate] the same measures were 16.2 nM and 716 nM.
Turning to `COc1ccc(OC)c(NC(=O)O[C@H]2C[C@H]3CCC[C@@H](C2)N3Cc2ccccc2)c1` [Compound 5, (3-endo)-9-Benzyl-9-azabicyclo[3.3.1]nonanyl-3-N-(2′, 5′-dimethoxyphenyl)-carbamate], the inhibition constant Ki amounted to 28.2 nM in assay [1] and 329 nM in assay [2].
For `CN1[C@@H]2CCC[C@H]1C[C@@H](OC(=O)Nc1ccc(Cl)c(Cl)c1)C2` [Compound 8, (3-endo)-9-Methyl-9-azabicyclo[3.3.1]nonanyl-3-N-(3′, 4′-dichlorophenyl)-carbamate], the inhibition constant Ki is 50.3 nM in assay [1] and 595 nM in assay [2].
For `COc1ccc(Cl)cc1NC(=O)O[C@H]1C[C@H]2CC[C@@H](C1)N2C` [Compound 3, (3-endo)-8-Methyl-8-azabicyclo[3.2.1]octyl-3-N-(2′-methoxy-5′-chloro-phenyl)-carbamate] the same measures were 156 nM and above 1000 nM.
For `O=C(Nc1ccc(Cl)c(Cl)c1)O[C@H]1C[C@H]2CCC[C@@H](C1)N2Cc1ccccc1` [Compound 4, (3-endo)-9-Benzyl-9-azabicyclo[3.3.1]nonanyl-3-N-(3′, 4′-dichlorophenyl)-carbamate] the same measures were 91.9 nM and 33.3 nM.
The corresponding values for `CN1[C@@H]2CC[C@H]1C[C@@H](OC(=O)Nc1ccc(Cl)c(Cl)c1)C2` [Compound 2, (3-endo)-8-Methyl-8-azabicyclo[3.2.1]octyl-3-N-(3′, 4′-dichlorophenyl)-carbamate] are 36.9 nM and above 1000 nM.
For `COc1cc(OC)c(NC(=O)O[C@H]2C[C@H]3CCC[C@@H](C2)N3Cc2ccccc2)cc1Cl` [Compound 6, (3-endo)-9-Benzyl-9-azabicyclo[3.3.1]nonanyl-3-N-(5′-chloro-2′, 4′-dimethoxyphenyl)carbamate], the Ki in assay [1] stood at 22.9 nM; in assay [2] it was 189 nM.
